Converted amounts (≈) assume the structure as drawn. The source made the active and inactive calls. No cut-off for these calls is given here.
Key:
[1] = system: Staphylococcus aureus; assay: Antibacterial activity against methicillin-resistant Staphylococcus aureus ATCC 33591 after 18 hrs by broth microdilution method; format: functional; conditions: ATCC 33591, 18 h
[2] = system: Staphylococcus aureus; assay: Antibacterial activity against methicillin-resistant Staphylococcus aureus isolate 8078 after 18 hrs by broth microdilution method; format: functional; conditions: isolate 8078, 18 h
[3] = system: Staphylococcus aureus; assay: Antibacterial activity against methicillin-resistant Staphylococcus aureus isolate 7813 after 18 hrs by broth microdilution method; format: functional; conditions: isolate 7813, 18 h
[4] = system: Staphylococcus aureus; assay: Antibacterial activity against methicillin-resistant Staphylococcus aureus isolate 7434 after 18 hrs by broth microdilution method; format: functional; conditions: isolate 7434, 18 h
[5] = system: Staphylococcus aureus; assay: Antibacterial activity against methicillin-resistant Staphylococcus aureus isolate 7863 after 18 hrs by broth microdilution method; format: functional; conditions: isolate 7863, 18 h
[6] = system: Staphylococcus aureus; assay: Antibacterial activity against methicillin-resistant Staphylococcus aureus isolate 2350 after 18 hrs by broth microdilution method; format: functional; conditions: isolate 2350, 18 h
[7] = system: Staphylococcus aureus; assay: Antibacterial activity against methicillin-resistant Staphylococcus aureus isolate 7536 after 18 hrs by broth microdilution method; format: functional; conditions: isolate 7536, 18 h
[8] = system: Staphylococcus aureus; assay: Antibacterial activity against Staphylococcus aureus ATCC 29213 after 18 hrs by broth microdilution method; format: functional; conditions: ATCC 29213, 18 h
[9] = system: Staphylococcus aureus; assay: Antibacterial activity against methicillin-resistant Staphylococcus aureus isolate 5395 after 18 hrs by broth microdilution method; format: functional; conditions: isolate 5395, 18 h
[10] = system: Bacillus subtilis; assay: Antibacterial activity against Bacillus subtilis 168 after 18 hrs by broth microdilution method; format: functional; conditions: subsp. subtilis str. 168, 18 h
[11] = system: Staphylococcus aureus; assay: Antibacterial activity against methicillin-resistant Staphylococcus aureus isolate 8179 after 18 hrs by broth microdilution method; format: functional; conditions: isolate 8179, 18 h
[12] = system: Staphylococcus aureus; assay: Antibacterial activity against methicillin-resistant Staphylococcus aureus isolate 5426 after 18 hrs by broth microdilution method; format: functional; conditions: isolate 5426, 18 h
[13] = system: Staphylococcus aureus; assay: Antibacterial activity against methicillin-resistant Staphylococcus aureus isolate 7717 after 18 hrs by broth microdilution method; format: functional; conditions: isolate 7717, 18 h
[14] = system: Staphylococcus aureus; assay: Antibacterial activity against methicillin-resistant Staphylococcus aureus isolate 1428 after 18 hrs by broth microdilution method; format: functional; conditions: isolate 1428, 18 h
[15] = system: Staphylococcus aureus; assay: Antibacterial activity against methicillin-resistant Staphylococcus aureus isolate 7960 after 18 hrs by broth microdilution method; format: functional; conditions: isolate 7960, 18 h
[16] = system: Escherichia coli; assay: Antibacterial activity against Escherichia coli ATCC 25922 after 18 hrs by broth microdilution method; format: functional; conditions: ATCC 25922, 18 h
[17] = system: Enterococcus faecalis; assay: Antibacterial activity against vancomycin-resistant Enterococcus faecalis ATCC 700221 after 18 hrs by broth microdilution method; format: functional; conditions: ATCC 700221, 18 h
[18] = system: Staphylococcus aureus; assay: Antibacterial activity against methicillin-resistant Staphylococcus aureus isolate 3170 after 18 hrs by broth microdilution method; format: functional; conditions: isolate 3170, 18 h
[19] = system: Staphylococcus aureus; assay: Antibacterial activity against methicillin-resistant Staphylococcus aureus isolate 8162 after 18 hrs by broth microdilution method; format: functional; conditions: isolate 8162, 18 h
[20] = system: Staphylococcus aureus; assay: Antibacterial activity against methicillin-resistant Staphylococcus aureus isolate 4023 after 18 hrs by broth microdilution method; format: functional; conditions: isolate 4023, 18 h
[21] = system: Staphylococcus aureus; assay: Antibacterial activity against methicillin-resistant Staphylococcus aureus isolate 5239 after 18 hrs by broth microdilution method; format: functional; conditions: isolate 5239, 18 h
[22] = system: Staphylococcus aureus; assay: Antibacterial activity against methicillin-resistant Staphylococcus aureus ATCC BAA41 after 18 hrs by broth microdilution method; format: functional; conditions: ATCC BAA41, 18 h
[23] = system: Staphylococcus aureus; assay: Antibacterial activity against methicillin-resistant Staphylococcus aureus isolate 7183 after 18 hrs by broth microdilution method; format: functional; conditions: isolate 7183, 18 h
[24] = system: Staphylococcus epidermidis; assay: Antibacterial activity against Staphylococcus epidermidis ATCC 12228 after 18 hrs by broth microdilution method; format: functional; conditions: ATCC 12228, 18 h
[25] = system: Staphylococcus aureus; assay: Antibacterial activity against methicillin-resistant Staphylococcus aureus isolate 2158 after 18 hrs by broth microdilution method; format: functional; conditions: isolate 2158, 18 h
[26] = Selectivity index, ratio of HC50 for human erythrocytes to MIC for methicillin-resistant Staphylococcus aureus ATCC 43300; format: toxicity; conditions: read-out: Selectivity Index
[27] = system: Enterococcus faecalis; assay: Potency index, ratio of berberine MIC to test compound MIC for Enterococcus faecalis ATCC 29212; format: functional
[28] = system: Staphylococcus aureus; assay: Antibacterial activity against Staphylococcus aureus ATCC 29213 after 10 passages by broth microdilution method; format: functional, organism-based
[29] = Selectivity index, ratio of HC50 for human erythrocytes to MIC for methicillin-resistant Staphylococcus aureus ATCC 33591; format: toxicity; conditions: read-out: Selectivity Index
[30] = system: Staphylococcus aureus; assay: Ratio of MIC for Staphylococcus aureus ATCC 29213 after and before 11 to 21 serial passages; format: functional
[31] = system: Staphylococcus aureus; assay: Ratio of MBC to MIC for methicillin-resistant Staphylococcus aureus ATCC BAA41; format: functional
[32] = system: Staphylococcus aureus; assay: Ratio of MBC to MIC for methicillin-resistant Staphylococcus aureus ATCC 43300; format: functional
[33] = system: Staphylococcus aureus; assay: Potency index, ratio of methicillin MIC to test compound MIC for methicillin-resistant Staphylococcus aureus ATCC 43300; format: functional
[34] = Selectivity index, ratio of HC50 for human erythrocytes to MIC for methicillin-resistant Staphylococcus aureus ATCC 33592; format: toxicity; conditions: read-out: Selectivity Index
[35] = Selectivity index, ratio of HC50 for human erythrocytes to MIC for methicillin-resistant Staphylococcus aureus ATCC BAA1720; format: toxicity; conditions: read-out: Selectivity Index
[36] = system: Staphylococcus aureus; assay: Bactericidal activity against methicillin-resistant Staphylococcus aureus ATCC 43300 after 18 hrs by broth microdilution method; format: functional; conditions: ATCC 43300, 18 h
[37] = target: T1, Cell division protein FtsZ (Staphylococcus aureus) (UniProt P0A031); assay: Inhibition of recombinant Staphylococcus aureus FtsZ polymerization at 8 ug/ml by 90 degree light scattering-based fluorescence spectrometric analysis
T1 sequence (whole entry): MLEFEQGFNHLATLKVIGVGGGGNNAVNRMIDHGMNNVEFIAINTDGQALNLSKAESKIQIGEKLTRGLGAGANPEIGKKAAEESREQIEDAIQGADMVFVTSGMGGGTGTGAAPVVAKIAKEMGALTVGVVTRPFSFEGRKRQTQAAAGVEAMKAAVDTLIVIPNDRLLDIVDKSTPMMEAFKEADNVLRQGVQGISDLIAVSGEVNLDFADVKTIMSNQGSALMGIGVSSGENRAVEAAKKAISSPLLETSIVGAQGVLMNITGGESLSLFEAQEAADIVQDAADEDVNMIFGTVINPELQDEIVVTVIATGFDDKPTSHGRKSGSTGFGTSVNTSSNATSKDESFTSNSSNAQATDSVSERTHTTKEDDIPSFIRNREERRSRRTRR

[38] = target: T1, Cell division protein FtsZ (Staphylococcus aureus); assay: Inhibition of recombinant Staphylococcus aureus FtsZ GTPase activity assessed as reduction in inorganic phosphate formation after 30 mins by colorimetric method
[39] = system: Enterococcus faecalis; assay: Bactericidal activity against vancomycin-resistant Enterococcus faecalis ATCC 700221 after 18 hrs by broth microdilution method; format: functional; conditions: ATCC 700221, 18 h
[40] = Selectivity index, ratio of HC50 for human erythrocytes to MIC for methicillin-resistant Staphylococcus aureus ATCC BAA41; format: toxicity; conditions: read-out: Selectivity Index
[41] = Hemolytic activity against human erythrocytes measured after 1 hr; format: ADME, cell-based, Erythrocyte

## CN[C@H](CC(C)C)C(=O)N[C@H]1C(=O)N[C@@H](CC(N)=O)C(=O)N[C@H]2C(=O)N[C@H]3C(=O)N[C@H](C(=O)N[C@H](C(=O)O)c4cc(O)cc(O)c4-c4cc3ccc4O)[C@H](O)c3ccc(c(Cl)c3)Oc3cc2cc(c3O[C@@H]2O[C@H](CO)[C@@H](O)[C@H](O)[C@H]2O[C@H]2C[C@](C)(N)[C@H](O)[C@H](C)O2)Oc2ccc(cc2Cl)[C@H]1O [VANCOMYCIN]
[1]
  MIC90: 2 µg/mL (≈ 1.38 µM)
[2]
  MIC90: 2 µg/mL (≈ 1.38 µM)
[3]
  MIC90: 1 µg/mL (≈ 0.69 µM)
[4]
  MIC90: 1 µg/mL (≈ 0.69 µM)
[5]
  MIC90: 1 µg/mL (≈ 0.69 µM)
[6]
  MIC90: 1 µg/mL (≈ 0.69 µM)
[7]
  MIC90: 1 µg/mL (≈ 0.69 µM)
[8]
  MIC90: 1 µg/mL (≈ 0.69 µM)
[9]
  MIC90: 1 µg/mL (≈ 0.69 µM)
[10]
  MIC90: 1 µg/mL (≈ 0.69 µM)
[11]
  MIC90: 1 µg/mL (≈ 0.69 µM)
[12]
  MIC90: 1 µg/mL (≈ 0.69 µM)
[13]
  MIC90: 1 µg/mL (≈ 0.69 µM)
[14]
  MIC90: 0.5 µg/mL (≈ 0.345 µM)
[15]
  MIC90: 2 µg/mL (≈ 1.38 µM)
[16]
  MIC90: 2 µg/mL (≈ 1.38 µM)
[17]
  MIC90: > 64 µg/mL
[18]
  MIC90: 2 µg/mL (≈ 1.38 µM)
[19]
  MIC90: 1 µg/mL (≈ 0.69 µM)
[20]
  MIC90: 2 µg/mL (≈ 1.38 µM)
[21]
  MIC90: 1 µg/mL (≈ 0.69 µM)
[22]
  MIC90: 2 µg/mL (≈ 1.38 µM)
[23]
  MIC90: 2 µg/mL (≈ 1.38 µM)
[24]
  MIC90: 0.5 µg/mL (≈ 0.345 µM)
[25]
  MIC90: 1 µg/mL (≈ 0.69 µM)

## CC(C)c1ccc(CN2CCCN(CCc3cc(-c4cccs4)nc(-c4ccncc4)n3)CC2)cc1
[26]
  selectivity ratio: > 32
[1]
  MIC90: 2 µg/mL (≈ 4.02 µM)
[2]
  MIC90: 2 µg/mL (≈ 4.02 µM)
[3]
  MIC90: 2 µg/mL (≈ 4.02 µM)
[4]
  MIC90: 2 µg/mL (≈ 4.02 µM)
[5]
  MIC90: 2 µg/mL (≈ 4.02 µM)
[6]
  MIC90: 2 µg/mL (≈ 4.02 µM)
[7]
  MIC90: 2 µg/mL (≈ 4.02 µM)
[8]
  MIC90: 2 µg/mL (≈ 4.02 µM)
[9]
  MIC90: 2 µg/mL (≈ 4.02 µM)
[10]
  MIC90: 2 µg/mL (≈ 4.02 µM)
[11]
  MIC90: 2 µg/mL (≈ 4.02 µM)
[12]
  MIC90: 2 µg/mL (≈ 4.02 µM)
[27]
  Ratio: 50 - 100
[13]
  MIC90: 2 µg/mL (≈ 4.02 µM)
[14]
  MIC90: 2 µg/mL (≈ 4.02 µM)
[28]
  Activity: Active
[29]
  selectivity ratio: > 32
[30]
  Ratio: 1
[31]
  Ratio: 1
[15]
  MIC90: 2 µg/mL (≈ 4.02 µM)
[16]
  MIC90: 128 µg/mL (≈ 257 µM)
[17]
  MIC90: 2 µg/mL (≈ 4.02 µM)
[32]
  Ratio: 2
[18]
  MIC90: 2 µg/mL (≈ 4.02 µM)
[33]
  Ratio: >100
[19]
  MIC90: 2 µg/mL (≈ 4.02 µM)
[20]
  MIC90: 2 µg/mL (≈ 4.02 µM)
[34]
  selectivity ratio: > 32
[21]
  MIC90: 2 µg/mL (≈ 4.02 µM)
[35]
  selectivity ratio: > 32
[36]
  MBC: 4 µg/mL (≈ 8.04 µM)
[37]
  inhibition: Active
[22]
  MIC90: 2 µg/mL (≈ 4.02 µM)
[23]
  MIC90: 2 µg/mL (≈ 4.02 µM)
[24]
  MIC90: 2 µg/mL (≈ 4.02 µM)
[38]
  inhibition: Dose-dependent effect
[25]
  MIC90: 2 µg/mL (≈ 4.02 µM)
[39]
  MBC: 4 µg/mL (≈ 8.04 µM)
[40]
  selectivity ratio: > 32
[41]
  HC50 at 1 h: > 64 µg/mL

Source: ChEMBL document CHEMBL4325853, “Design, synthesis and antibacterial evaluation of 2,4-disubstituted-6-thiophenyl-pyrimidines” (Eur J Med Chem, 2019)
